Experimental data from paper PMC4470815, “Selective Cytotoxicity of 1,3,4-Thiadiazolium Mesoionic Derivatives on Hepatocarcinoma Cells (HepG2)” (PLoS ONE, 2015).

Molecular target: T1, ABCG2 (Homo sapiens, UniProt Q9UNQ0)
T1 sequence (Q9UNQ0 1-655): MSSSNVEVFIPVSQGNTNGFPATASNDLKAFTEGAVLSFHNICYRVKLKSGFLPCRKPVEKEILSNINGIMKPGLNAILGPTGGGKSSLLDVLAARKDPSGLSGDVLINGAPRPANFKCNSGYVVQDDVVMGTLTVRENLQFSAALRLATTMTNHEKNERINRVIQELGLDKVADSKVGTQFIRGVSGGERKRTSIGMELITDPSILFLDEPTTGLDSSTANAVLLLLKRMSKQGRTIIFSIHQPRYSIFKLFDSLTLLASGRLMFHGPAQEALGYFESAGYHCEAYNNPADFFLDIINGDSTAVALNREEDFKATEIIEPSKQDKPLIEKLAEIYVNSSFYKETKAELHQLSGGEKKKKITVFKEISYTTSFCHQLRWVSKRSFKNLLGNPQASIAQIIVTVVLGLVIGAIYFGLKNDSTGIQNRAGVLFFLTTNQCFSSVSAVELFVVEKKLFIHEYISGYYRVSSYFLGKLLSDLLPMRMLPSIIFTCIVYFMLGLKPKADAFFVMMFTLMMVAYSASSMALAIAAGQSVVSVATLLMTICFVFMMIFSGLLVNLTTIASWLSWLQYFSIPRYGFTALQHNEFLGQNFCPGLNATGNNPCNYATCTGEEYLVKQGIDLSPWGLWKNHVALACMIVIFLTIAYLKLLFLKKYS
Experiment: inhibition of mitoxantrone efflux in HEK293ABCG2 cells, flow cytometry
Assay type: cell-based
Conditions: read-out: ABCG2 / EC50

Structure (SMILES) | IC50 [µM]
O=[N+]([O-])c1ccc(/C=C/c2sc(Nc3ccccc3)n[n+]2-c2ccccc2)cc1 [MI-D, 4-phenyl-5-(4-nitrocinnamoyl)-1,3,4-thiadiazolium-2-phenylamine chloride] | 24.3 ± 9.6
Oc1ccc(/C=C/c2sc(Nc3ccccc3)n[n+]2-c2ccccc2)cc1 [MI-J] | 8.5 ± 4.8
